Measured values as given in patent publication US8562975B2, “Method for stabilizing reduced coenzyme Q10 and composition therefor” (Kaneka Corporation, priority 2002, dated 2013).

Legend:
[1] = Solubility of reduced coenzyme Q10 crystals in fats and oils at 30° C.; format: physicochemical
Experimental: The solubility of the crystals obtained in Production Example 1 in medium-chain fatty acid triglyceride (MCT, C8:C10=6:4), soybean oil, safflower oil, or rice oil at 30° C. is shown in Table 8.

[2] = Storage stability of reduced coenzyme Q10 compositions in the air at 40° C., light-shielded, 3 days (HPLC weight ratio); format: physicochemical; conditions: vitamin E content high (4.11% by weight based on the system excluding coenzyme Q10)
Experimental: The purity and reduced coenzyme Q10/oxidized coenzyme Q10 ratio (weight ratio) were determined by the following HPLC analysis.
C18 (product of Waters), 250 mm (in length), 4.6 mm (in inside diameter): mobile phase; C2H5OH/CH3OH=4/3 (v/v): detection wavelength; 210 nm: flow rate; 1 ml/min: retention time of reduced coenzyme Q10; 9.1 min: retention time of oxidized coenzyme Q10; 13.3 min.
The crystals obtained in Production Example 1 were added to soybean oil, glycerol, and a mixture thereof, respectively, to a concentration of 6% by weight, and the resulting mixtures were stored in the air at 40° C. under a light-shielded condition for 3 days, and the reduced coenzyme Q10/oxidized coenzyme Q10 weight ratios in the solutions were determined.
The crystals obtained in Production Example 1 were added to various fats and oils specified in Table 2, respectively, to a concentration of 6% by weight, and the resulting mixtures were stored in the air at 40° C. under a light-shielded condition for 3 days, and the reduced coenzyme Q10/oxidized coenzyme Q10 weight ratios in the solutions were determined.
The crystals obtained in Production Example 1 were added to olive oil to a concentration of 6% by weight, and the resulting mixture was stored in the air at 40° C. under a light-shielded condition for 3 days. […]

Molecule	Solubility ([1]; in MCT (C8:C10=6:4) at 30° C.)	Solubility ([1]; in rice oil at 30° C.)	Solubility ([1]; in safflower oil at 30° C.)	Solubility ([1]; in soybean oil at 30° C.)	effect on stabilization of reduced coenzyme Q10, in words [2]
COc1c(O)c(C)c(C/C=C(\C)CC/C=C(\C)CC/C=C(\C)CC/C=C(\C)CC/C=C(\C)CC/C=C(\C)CC/C=C(\C)CC/C=C(\C)CC/C=C(\C)CCC=C(C)C)c(O)c1OC [Compar. Ex. 1, reduced coenzyme Q10]	22.4 wt %	10.2 wt %	11.1 wt %	10.9 wt %	–
vitamin E	–	–	–	–	inhibits the stabilization of reduced coenzyme Q10
